Reference: US8785614B2, “Aberrantly methylated genes in pancreatic cancer” (The Johns Hopkins University, priority 2003, dated 2014)
Read-outs that look alike come from different tables or passages of the source.

Columns and labels:
[1] = test system: nonneoplastic ductal cell line HPDE
Method: (§1) Total RNA was isolated from cultured cells using TRIZOL reagent (invitrogen, Carlsbad, Calif.) and purified using RNeasy Mini Kit (Qiagen, Valencia, Calif.). First- and second-stranded cDNA was synthesized from 10 μg of total RNA using 17-dT) primer (Genset Corp., La Jolla, Calif.) and Superscript Choice system (Invitrogen). Labeled cRNA was synthesized from the purified cDNA by in vitro transcription reaction using the BioArray High Yield RNA Transcript Labeling Kit (Enzo Diagnostics, Inc., Farmingdale, N.Y.) at 37° C. for 6 h. The cRNA was fragmented at 94° C. for 35 min. in a fragmentation buffer [40 mM Tris-acetate @ pH 8.1, 100 mM potassium acestate, and 30 mM magnesium acetate]. The fragmented cRNA was then hybridized to the Human Genome U133A chips (Affymetrix, Santa Clara, Calif.) with 18462 unique gene/EST transcripts at 45° C. for 16 h. The washing and staining procedure was performed in the Affymetrix Fluidics Station according to the manufacturer's instructions. The probes were then scanned using a laser scanner, and signal intensity for each transcript (background-subtracted and adjusted for noise) was calculated using Microarray Suite Software 5.0 (Affymetrix).
(§2) Fold change analysis of signal intensities obtained from oligonucleotide microarrays between the two treatment groups was performed using Data Mining software (Afrymetrix).

[2] = test system: four pancreatic cancer cell lines (AsPC1, Hs766T, MiaPaCa2, Panc1)
Method: Mock-treated cells were cultured with the equivalent volume of PBS alone.
as §1, §2
The global changes in gene expression proxies induced by 5Aza-dC in four pancreatic cancer cell lines (AsPCl, Hs766T, MiaPaCa2, and Panel) were determined using the Afrymetrix U133 oligonucleotide microarrays with 18462 probes sets (transcripts) covering over 13000 full-length sequences of known genes.

Nc1ncn([C@H]2C[C@H](O)[C@@H](CO)O2)c(=O)n1 [5Aza-dC, 5 aza 2′ deoxycytidine]
Fold-change after 5Aza-dC treatment ([1]; ANGPT2, HPDE): −0.4 fold
Fold-change after 5Aza-dC treatment ([1]; BARD1, HPDE): 2.23 fold
Fold-change after 5Aza-dC treatment ([1]; BNIP3, HPDE): 1.23 fold
Fold-change after 5Aza-dC treatment ([1]; BST2, HPDE): −1.06 fold
Fold-change after 5Aza-dC treatment ([1]; CACNA1G, HPDE): 0.39 fold
Fold-change after 5Aza-dC treatment ([1]; CCNE2, HPDE): 1.5 fold
Fold-change after 5Aza-dC treatment ([1]; CDH3, HPDE): −1.08 fold
Fold-change after 5Aza-dC treatment ([1]; CDKN1A (p21), HPDE): 1.33 fold
Fold-change after 5Aza-dC treatment ([1]; CDKN1C, HPDE): 1.07 fold
Fold-change after 5Aza-dC treatment ([1]; CLDN5, HPDE): 2.45 fold
Fold-change after 5Aza-dC treatment ([1]; CSF1, HPDE): −1.03 fold
Fold-change after 5Aza-dC treatment ([1]; DR3, HPDE): 1.01 fold
Fold-change after 5Aza-dC treatment ([1]; FOXE1, HPDE): −1.1 fold
Fold-change after 5Aza-dC treatment ([1]; GAGE1, HPDE): −0.55 fold
Fold-change after 5Aza-dC treatment ([1]; GAGE3, HPDE): 1.33 fold
Fold-change after 5Aza-dC treatment ([1]; GAGE4, HPDE): 3.33 fold
Fold-change after 5Aza-dC treatment ([1]; GAGE6, HPDE): 2.41 fold
Fold-change after 5Aza-dC treatment ([1]; GAGE7, HPDE): 3.36 fold
Fold-change after 5Aza-dC treatment ([1]; HOXA1, HPDE): −1.23 fold
transcripts induced, share of transcripts analyzed ([1]; HPDE): 0.5%
transcripts whose expression was induced after drug treatment ([1]; HPDE): 101 transcripts
Fold-change after 5Aza-dC treatment ([1]; IGF2, HPDE): −0.34 fold
Fold-change after 5Aza-dC treatment ([1]; IL1R1, HPDE): −1.81 fold
Fold-change after 5Aza-dC treatment ([1]; ISG20, HPDE): 0.89 fold
Fold-change after 5Aza-dC treatment ([1]; JPH3, HPDE): 2.14 fold
Fold-change after 5Aza-dC treatment ([1]; KLK10, HPDE): 3.75 fold
Fold-change after 5Aza-dC treatment ([1]; LDOC1, HPDE): −1.12 fold
Fold-change after 5Aza-dC treatment ([1]; LHX1, HPDE): 1.01 fold
Fold-change after 5Aza-dC treatment ([1]; MAGE1, HPDE): 1.7 fold
Fold-change after 5Aza-dC treatment ([1]; MATN1, HPDE): −125 fold
Fold-change after 5Aza-dC treatment ([1]; NEFH, HPDE): −1.08 fold
Fold-change after 5Aza-dC treatment ([1]; NPTX2, HPDE): 2.42 fold
Fold-change after 5Aza-dC treatment ([1]; PAX6, HPDE): 2.57 fold
Fold-change after 5Aza-dC treatment ([1]; PDYN, HPDE): −1.04 fold
Fold-change after 5Aza-dC treatment ([1]; PLAT, HPDE): 4.9 fold
Fold-change after 5Aza-dC treatment ([1]; PLEK2, HPDE): 1.2 fold
Fold-change after 5Aza-dC treatment ([1]; SARP2, HPDE): 1.11 fold
Fold-change after 5Aza-dC treatment ([1]; SMARCA1, HPDE): 3.54 fold
Fold-change after 5Aza-dC treatment ([1]; ST14, HPDE): −1.05 fold
Fold-change after 5Aza-dC treatment ([1]; TIMP3, HPDE): 1.32 fold
Fold-change after 5Aza-dC treatment ([1]; TJP2, HPDE): 1.41 fold
Fold-change after 5Aza-dC treatment ([1]; TNF, HPDE): −1.2 fold
Fold-change after 5Aza-dC treatment ([1]; UCHL1, HPDE): 1.95 fold
Fold-change after 5Aza-dC treatment ([1]; WNT7A, HPDE): −1.23 fold
Fold-change after 5Aza-dC treatment ([1]; XAGE-1, HPDE): −0.43 fold
Fold-change after 5Aza-dC treatment ([1]; granulocytemacrophage colony-stimulating factor (M11734), HPDE): −0.94 fold
Fold-change after 5Aza-dC treatment ([1]; interferon, alpha-inducible protein (NM_022873), HPDE): 1.33 fold
Fold-change after 5Aza-dC treatment ([1]; p53-induced protein (PIGII), HPDE): −1.58 fold
Fold-change after 5Aza-dC treatment ([1]; reprimo, HPDE): 1.06 fold
Fold-change after 5Aza-dC treatment ([1]; stratifin (14-3-3 sigma), HPDE): −1.46 fold
Fold-change after 5Aza-dC treatment ([1]; stromal antigen 3 (STAG5), HPDE): 4.8 fold
Fold-change after 5Aza-dC treatment ([1]; testin, HPDE): 1.09 fold
changes in phenotypes during the treatment period [2]: did not result in apparent changes in their phenotypes
Induced by 5Aza-dC alone? ([2]; ADM): No
Induced by 5Aza-dC alone? ([2]; ANGPT1): No
Induced by 5Aza-dC alone? ([2]; AREG): No
Induced by 5Aza-dC alone? ([2]; ATF3): No
Induced by 5Aza-dC alone? ([2]; BIK): No
Induced by 5Aza-dC alone? ([2]; BIK (Table 3)): No
Induced by 5Aza-dC alone? ([2]; BNIP3): Yes
Induced by 5Aza-dC alone? ([2]; BST2): Yes
Induced by 5Aza-dC alone? ([2]; CACNA1G): Yes
Induced by 5Aza-dC alone? ([2]; CAPN5): No
Induced by 5Aza-dC alone? ([2]; CASP5): No
Induced by 5Aza-dC alone? ([2]; CCNA1): No
Induced by 5Aza-dC alone? ([2]; CDC25A): No
Induced by 5Aza-dC alone? ([2]; CDH8): Yes
Induced by 5Aza-dC alone? ([2]; CDKN1C): Yes
Induced by 5Aza-dC alone? ([2]; CDKN2A (p16)): No
Induced by 5Aza-dC alone? ([2]; CGR11): No
Induced by 5Aza-dC alone? ([2]; CHES1): No
Induced by 5Aza-dC alone? ([2]; CHFR): No
Induced by 5Aza-dC alone? ([2]; CLDN7): No
Induced by 5Aza-dC alone? ([2]; CLDN15): No
Induced by 5Aza-dC alone? ([2]; CRIP 1): No
Induced by 5Aza-dC alone? ([2]; CRLF1): No
Induced by 5Aza-dC alone? ([2]; CSF3): No
Induced by 5Aza-dC alone? ([2]; Cdc42 effector protein 2): No
Induced by 5Aza-dC alone? ([2]; DAPK2): No
Induced by 5Aza-dC alone? ([2]; DAZL): Yes
Induced by 5Aza-dC alone? ([2]; DEAD box RNA helicase (VASA)): No
Induced by 5Aza-dC alone? ([2]; EDR1): Yes
Induced by 5Aza-dC alone? ([2]; EGR4): No
Induced by 5Aza-dC alone? ([2]; EREG): No
Induced by 5Aza-dC alone? ([2]; GADD45B): No
Induced by 5Aza-dC alone? ([2]; GAGE1): Yes
Induced by 5Aza-dC alone? ([2]; GAGE2 (Table 2)): No
Induced by 5Aza-dC alone? ([2]; GAGE2 (Table 3)): Yes
Induced by 5Aza-dC alone? ([2]; GAGE3): Yes
Induced by 5Aza-dC alone? ([2]; GAGE4): Yes
Induced by 5Aza-dC alone? ([2]; GAGE6): Yes
Induced by 5Aza-dC alone? ([2]; GAGE7B (Table 2)): Yes
Induced by 5Aza-dC alone? ([2]; GAGE7B (Table 3)): No
Induced by 5Aza-dC alone? ([2]; GAS1): No
Induced by 5Aza-dC alone? ([2]; H1 historic family, member 2 (BC002649)): No
Induced by 5Aza-dC alone? ([2]; HEP27): No
Induced by 5Aza-dC alone? ([2]; HMOX1): No
Induced by 5Aza-dC alone? ([2]; HPSE): No
Induced by 5Aza-dC alone? ([2]; HSPA1A): No
Induced by 5Aza-dC alone? ([2]; ID2): No
Induced by 5Aza-dC alone? ([2]; ING1): No
Induced by 5Aza-dC alone? ([2]; ITM3): No
Induced by 5Aza-dC alone? ([2]; KLK12): Yes
Induced by 5Aza-dC alone? ([2]; KRT17): No
Induced by 5Aza-dC alone? ([2]; LHX2): Yes
Induced by 5Aza-dC alone? ([2]; LIPC): Yes
Induced by 5Aza-dC alone? ([2]; MAGE1): Yes
Induced by 5Aza-dC alone? ([2]; MAGEC1): No
Induced by 5Aza-dC alone? ([2]; MBD1): No
Induced by 5Aza-dC alone? ([2]; MLH1): No
Induced by 5Aza-dC alone? ([2]; MMP1): No
Induced by 5Aza-dC alone? ([2]; NGFR): Yes
Induced by 5Aza-dC alone? ([2]; NK4): Yes
Induced by 5Aza-dC alone? ([2]; NOTCH3): No
Induced by 5Aza-dC alone? ([2]; P-glycoprotein (mdr1)): No
Induced by 5Aza-dC alone? ([2]; PAX6): Yes
Induced by 5Aza-dC alone? ([2]; PIG11): Yes
Induced by 5Aza-dC alone? ([2]; PRG1): No
Induced by 5Aza-dC alone? ([2]; S100A2): Yes
Induced by 5Aza-dC alone? ([2]; S100P): No
Induced by 5Aza-dC alone? ([2]; SALL1): Yes
Induced by 5Aza-dC alone? ([2]; SARP2): Yes
Induced by 5Aza-dC alone? ([2]; SGCE): No
Induced by 5Aza-dC alone? ([2]; SPANXA1): No
Induced by 5Aza-dC alone? ([2]; SPANXC): No
Induced by 5Aza-dC alone? ([2]; STAT3): No
Induced by 5Aza-dC alone? ([2]; STC1): Yes
Induced by 5Aza-dC alone? ([2]; TERT): No
Induced by 5Aza-dC alone? ([2]; UCHL1): Yes
Induced by 5Aza-dC alone? ([2]; UCPH): No
Induced by 5Aza-dC alone? ([2]; ULBP2): Yes
Induced by 5Aza-dC alone? ([2]; WISP2): No
Induced by 5Aza-dC alone? ([2]; WIT-1): Yes
Induced by 5Aza-dC alone? ([2]; WNT4): Yes
Induced by 5Aza-dC alone? ([2]; XAGE-1): Yes
Induced by 5Aza-dC alone? ([2]; activity-regulated cytoskeleton-associated protein (APC)): No
transcripts specifically up-regulated by 5Aza-dC treatment in pancreatic cancers ([2]; after excluding those reactivated in HPDE): 590 transcripts
Induced by 5Aza-dC alone? ([2]; aik3): No
Induced by 5Aza-dC alone? ([2]; basic fibroblast growth factor (FGF)): No
Induced by 5Aza-dC alone? ([2]; candidate tumor suppressor gene 21 protein (AF040708)): No
Induced by 5Aza-dC alone? ([2]; connective tissue growth factor (M92934)): No
Induced by 5Aza-dC alone? ([2]; cytovillin 2 (VIL2, ezrin)): No
Induced by 5Aza-dC alone? ([2]; hemoglobin, alpha 1 (HBAI)): Yes
genes markedly up-regulated by 5Aza-dC treatment ([2]; in one or more pancreatic cancer cell lines but not in HPDE): 475 genes
Induced by 5Aza-dC alone? ([2]; interleukin 8): No
Induced by 5Aza-dC alone? ([2]; junction adhesion molecule (AF154005)): No
Induced by 5Aza-dC alone? ([2]; matrix metalloproteinase 8 (MMP3)): No
Induced by 5Aza-dC alone? ([2]; nucleotide-binding site protein 1 (AF298547)): No
Induced by 5Aza-dC alone? ([2]; period homolog 1 (PERI)): Yes
Induced by 5Aza-dC alone? ([2]; prostate differentiation factor (AF003934)): Yes
Induced by 5Aza-dC alone? ([2]; protease inhibitor 12 (neuroserpin) (SERPINU)): No
average number of transcripts induced per cell line ([2]; range 116-251 transcripts): ~200 transcripts
Induced by 5Aza-dC alone? ([2]; synovial sarcoma, X breakpoint 1 (BC001003)): Yes
Induced by 5Aza-dC alone? ([2]; synovial sarcoma, X breakpoint 2 (AF257500)): No
Induced by 5Aza-dC alone? ([2]; tissue factor pathway inhibitor-2 (L27624)): No
Induced by 5Aza-dC alone? ([2]; transketolase-like protein (X91817)): No
